Patent publication US11673892B2, “Bicyclic compounds for use as RIP1 kinase inhibitors” (Genentech, Inc., priority 2017, dated 2023)

What follows are compounds tested against T1, human RIP1 kinase domain (2-375) (Homo sapiens, UniProt Q13546) (assay: RIP1 kinase inhibition biochemical assay (Transcreener ADP, fluorescence polarization)). Details: Ki app (Morrison tight-binding fit); 50 nM enzyme, 50 uM ATP, 2 hours incubation.
T1 construct: Purified human RIP1 kinase domain (2-375) (50 nM); made in house; host or cells: baculovirus-infected insect cells
T1 sequence (Q13546 2-375): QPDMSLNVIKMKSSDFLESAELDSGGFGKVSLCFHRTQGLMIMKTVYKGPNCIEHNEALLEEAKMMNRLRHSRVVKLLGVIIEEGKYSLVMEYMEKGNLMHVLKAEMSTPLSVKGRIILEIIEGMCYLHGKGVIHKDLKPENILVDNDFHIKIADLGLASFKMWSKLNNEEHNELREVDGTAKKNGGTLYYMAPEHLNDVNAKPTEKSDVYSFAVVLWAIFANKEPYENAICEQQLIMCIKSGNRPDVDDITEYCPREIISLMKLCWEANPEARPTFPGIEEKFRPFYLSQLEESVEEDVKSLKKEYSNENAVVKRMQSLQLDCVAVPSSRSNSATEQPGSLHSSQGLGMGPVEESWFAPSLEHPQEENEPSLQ
Procedure: RIP1 Kinase Inhibition Assays (Biochemical Assay)
The compounds of the present invention were tested for their capacity to inhibit RIP1K activity as described below.
The ability of the receptor interacting protein kinase (RIPK1) to catalyze the hydrolysis of adenosine-5′-triphosphate (ATP) is monitored using the Transcreener ADP (adenosine-5′-diphosphate) assay (BellBrook Labs). Purified human RIP1 kinase domain (2-375) (50 nM) derived from a baculovirus-infected insect cell expression system is incubated with test compounds for 2 hours in 50 mM Hepes buffer (pH 7.5) containing 30 mM MgCl2, 1 mM dithiothreitol, 50 uM ATP, 0.002% Brij-35, and 0.5% dimethyl sulfoxide (DMSO). Reactions are quenched by the addition of 1× Bell Brooks Stop buffer B (20 mM Hepes (ph7.5), 40 mM ethylenediaminetetraacetic acid and 0.02% Brij-35) containing an additional 12 mM EDTA and 55 ug/mL ADP2 antibody and 4 nM ADP-AlexaFluor® 633 tracer. The tracer bound to the antibody is displaced by the ADP generated during the RIP1K reaction, which causes a decrease in fluorescence polarization that is measured by laser excitation at 633 nm with a FP microplate reader M1000. Fractional activity was plotted against test article concentration. Using Genedata Screener software (Genedata; Basel, Switzerland), the data were fit to the tight-binding apparent inhibition constant (Ki^app) Morrison equation [Williams, J. W. and Morrison, J. F. (1979) The kinetics of reversible tight-binding inhibition. Methods Enzymol 63: 437-67]. The following equation was used to calculate fractional activity and Ki^app:
[formula] where [E]T and [I]T are the total concentrations of active enzyme and test article, respectively.
Exemplary compounds of the present invention are provided in Table 1 along with their physiochemical characterization and in vitro RIP1 kinase inhibitory activity data. “Method” in the first column of each table refers to the synthetic method(s) used to prepare each compound as shown in the Examples above. In certain examples, chiral column retention times (min) are provided for certain stereoisomers. Unless otherwise specified, the stereochemistry shown in each structure represents relative configuration of a single stereoisomer, and absolute configuration (i.e., “R” and/or “S”) is arbitrarily assigned. In some embodiments, where the Method is described to include the separation of stereoisomers, a single stereoisomer of a compound of Table 1 is provided.

SMILES | Ki
F[C@H]1C[C@@H](c2ccccc2)n2nc(-n3ncc4ccncc43)nc21 (racemic) [Example 87, 1-[rac-(5S,7S)-7-fluoro-5-phenyl-6,7-dihydro-5H-pyrrolo[1,2-b][1,2,4]triazol-2-yl]pyrazolo[3,4-c]pyridine] | 160 nM
Cn1ccc(-c2nc3n(n2)[C@H](c2ccccc2)C[C@@H]3F)n1 (single isomer, unassigned) [Example 19] | 1100 nM
F[C@H]1C[C@@H](c2ccccc2)n2nc(-n3cc(C(F)(F)F)cn3)nc21 (single isomer, unassigned) [Example 56] | < 5 nM
N#Cc1ccc2c(c1)nnn2-c1nc2n(n1)[C@H](c1ccccc1)C[C@@H]2F (racemic) [Example 85, 1-[rac-(5S,7S)-7-fluoro-5-phenyl-6,7-dihydro-5H-pyrrolo[1,2-b][1,2,4]triazol-2-yl]benzotriazole-5-carbonitrile] | 19 nM
F[C@H]1C[C@@H](c2ccccc2)n2nc(-n3ncc4cnccc43)nc21 (single isomer, unassigned) [Example 89] | 810 nM
F[C@H]1C[C@@H](c2ccccc2)n2nc(-n3nnc4ccccc43)nc21 (single isomer, unassigned) [Example 81] | 5 nM
N#CCc1cnn(-c2nc3n(n2)[C@H](c2ccccc2)C[C@@H]3F)c1 (single isomer, unassigned) [Example 77] | 260 nM
F[C@H]1C[C@@H](c2ccccc2)n2nc(-n3ncc4ccccc43)nc21 (racemic) [Example 73, 1-[rac-(5S,7S)-7-fluoro-5-phenyl-6,7-dihydro-5H-pyrrolo[1,2-b][1,2,4]triazol-2-yl]indazole] | 6.2 nM
FC1CC(c2ccccc2)n2nc(C(F)(F)F)nc21 (racemic) [Example 12, Cis-7-fluoro-5-phenyl-2-(trifluoromethyl)-6,7-dihydro-5H-pyrrolo[1,2-b][1,2,4]triazole] | 130 nM
F[C@H]1C[C@@H](c2ccccc2)n2nc(-n3cc(C4CC4)cn3)nc21 (single isomer, unassigned) [Example 79] | 13 nM
N#CC1CC1c1nc2n(n1)[C@H](c1ccccc1)C[C@@H]2F (mixture of isomers) [Example 16, Trans-2-[(5S,7S)-7-fluoro-5-phenyl-6,7-dihydro-5H-pyrrolo[1,2-b][1,2,4]triazol-2-yl]cyclopropanecarbonitrile] | 51 nM
Cc1ncnn1-c1nc2n(n1)[C@H](c1ccccc1)C[C@@H]2F (single isomer, unassigned) [Example 74] | 70 nM
CC(=O)c1cnn(-c2nc3n(n2)[C@H](c2ccccc2)C[C@@H]3F)c1 (racemic) [Example 78, 1-[1-[rac-(5S,7S)-7-fluoro-5-phenyl-6,7-dihydro-5H-pyrrolo[1,2-b][1,2,4]triazol-2-yl]pyrazol-4-yl]ethanone] | 130 nM
O[C@H](c1nc2n(n1)[C@H](c1ccccc1)C[C@@H]2F)C1CC1 (single isomer, unassigned) [Example 34] | 904 nM
C=Cc1nc2n(n1)[C@H](c1ccccc1)C[C@@H]2F (single isomer, unassigned) [Example 50] | 220 nM
F[C@@H]1C[C@H](c2ccccc2)n2nc(C(F)(F)C3CC3)nc21 (racemic) [Example 5] | 27 nM
OC(c1nc2n(n1)C(c1ccccc1)CC2F)C(F)(F)F [Example 4, cis-(5S,7S)-2,2,2-trifluoro-1-(7-fluoro-5-phenyl-6,7-dihydro-5H-pyrrolo[1,2-b][1,2,4]triazol-2-yl)ethanol] | 470 nM
Cc1cc(C#N)nn1-c1nc2n(n1)[C@H](c1ccccc1)C[C@@H]2F (single isomer, unassigned) [Example 91] | 13 nM
Cn1cc(/C=C/c2nc3n(n2)[C@H](c2ccccc2)C[C@@H]3F)cn1 (single isomer, unassigned) [Example 49] | 1200 nM
F[C@H]1C[C@@H](c2ccccc2)n2nc(C3CC3C(F)(F)F)nc21 (stereo partly drawn) [Example 33, (5S,7S)-7-fluoro-5-phenyl-2-(2-(trifluoromethyl)cyclopropyl)-6,7-dihydro-5H-pyrrolo[1,2-b][1,2,4]triazole] | 34 nM
Cc1ncn(-c2nc3n(n2)[C@H](c2ccccc2)C[C@@H]3F)c1C (single isomer, unassigned) [Example 70] | 180 nM
F[C@H]1C[C@@H](c2ccccc2)n2nc(-n3cnc(Cl)c3)nc21 (single isomer, unassigned) [Example 75] | 100 nM
F[C@H]1C[C@@H](c2ccccc2)n2nc(-n3ccnc3Cl)nc21 (single isomer, unassigned) [Example 69] | 86 nM
CCc1cnn(-c2nc3n(n2)[C@H](c2ccccc2)C[C@@H]3F)c1 (single isomer, unassigned) [Example 59] | 11 nM
F[C@H]1C[C@@H](c2ccccc2)n2nc([C@H](F)C3CC3)nc21 (single isomer, unassigned) [Example 107] | 3.5 nM

The next lines start with the values.

Ki | SMILES
120 nM | N#CCOCc1nc2n(n1)[C@H](c1ccccc1)C[C@@H]2F (racemic) [Example 51, 2-[(7-fluoro-5-phenyl-6,7-dihydro-5H-pyrrolo[1,2-b][1,2,4]triazol-2-yl)methoxy]acetonitrile]
49 nM | CCc1nc2n(n1)[C@H](c1ccccc1)C[C@@H]2F [Example 36, (5S,7S)-2-ethyl-7-fluoro-5-phenyl-6,7-dihydro-5H-pyrrolo[1,2-b][1,2,4]triazole]
100 nM | C=CCc1nc2n(n1)[C@H](c1ccccc1)C[C@@H]2F (single isomer, unassigned) [Example 52]
16 nM | F[C@H]1C[C@@H](c2ccccc2)n2nc(CC3CCC3)nc21 (stereo in doubt) [Example 94, (5S,7S)-2-(cyclobutylmethyl)-7-fluoro-5-phenyl-6,7-dihydro-5H-pyrrolo[1,2-b][1,2,4]triazole]
320 nM | FC1CC(c2ccccc2)n2nc(C3CC3)nc21 (racemic) [Example 11, Cis-2-cyclopropyl-7-fluoro-5-phenyl-6,7-dihydro-5H-pyrrolo[1,2-b][1,2,4]triazole]
114 nM | CCCc1nc2n(n1)[C@H](c1ccccc1F)CC2 (single isomer, unassigned) [Example 26]
3000 nM | CC(C)OCc1nc2n(n1)[C@H](c1ccccc1)C[C@@H]2F [Example 37, (5S,7S)-7-fluoro-2-(isopropoxymethyl)-5-phenyl-6,7-dihydro-5H-pyrrolo[1,2-b][1,2,4]triazole]
78 nM | CCCc1nc2n(n1)[C@@H](c1ccccc1)C[C@H]2F (racemic) [Example 10, Cis-(5S,7S)-7-fluoro-5-phenyl-2-propyl-6,7-dihydro-5H-pyrrolo[1,2-b][1,2,4]triazole]
11 nM | N#CCCc1nc2n(n1)[C@H](c1ccccc1)C[C@@H]2F (single isomer, unassigned) [Example 22]
64 nM | Fc1cn(-c2nc3n(n2)[C@H](c2ccccc2)C[C@@H]3F)cn1 (single isomer, unassigned) [Example 76]
4 nM | F[C@H]1C[C@@H](c2ccccc2)n2nc(CC3CC3(F)F)nc21 (stereo partly drawn) [Example 20, (5S,7S)-2-[(2,2-difluorocyclopropyl)methyl]-7-fluoro-5-phenyl-6,7-dihydro-5H-pyrrolo[1,2-b][1,2,4]triazole]
